ChEMBL document CHEMBL4265922, “Synthesis and antiproliferative activity of 6,7-disubstituted-4-phenoxyquinoline derivatives bearing the 1,8-naphthyridin-2-one moiety” (Eur J Med Chem, 2018)

Experiments:
[1] = tested on: HepG2; test: cells; details: Homo sapiens, HepG2, 72 h
[2] = tested on: MCF7; test: cells; details: Homo sapiens, MCF7, 72 h
[3] = tested on: A549; test: cells; details: Homo sapiens, A549, 72 h
Description: Antiproliferative activity against human A549 cells after 72 hrs by MTT assay

[4] = molecular target: Hepatocyte growth factor receptor (Homo sapiens, UniProt P08581); test: Inhibition of c-MET (unknown origin) using FAM-labeled peptide as substrate incubated for 10 mins followed by substrate addition by HTRF assay
Hepatocyte growth factor receptor, sequence (P08581 whole entry): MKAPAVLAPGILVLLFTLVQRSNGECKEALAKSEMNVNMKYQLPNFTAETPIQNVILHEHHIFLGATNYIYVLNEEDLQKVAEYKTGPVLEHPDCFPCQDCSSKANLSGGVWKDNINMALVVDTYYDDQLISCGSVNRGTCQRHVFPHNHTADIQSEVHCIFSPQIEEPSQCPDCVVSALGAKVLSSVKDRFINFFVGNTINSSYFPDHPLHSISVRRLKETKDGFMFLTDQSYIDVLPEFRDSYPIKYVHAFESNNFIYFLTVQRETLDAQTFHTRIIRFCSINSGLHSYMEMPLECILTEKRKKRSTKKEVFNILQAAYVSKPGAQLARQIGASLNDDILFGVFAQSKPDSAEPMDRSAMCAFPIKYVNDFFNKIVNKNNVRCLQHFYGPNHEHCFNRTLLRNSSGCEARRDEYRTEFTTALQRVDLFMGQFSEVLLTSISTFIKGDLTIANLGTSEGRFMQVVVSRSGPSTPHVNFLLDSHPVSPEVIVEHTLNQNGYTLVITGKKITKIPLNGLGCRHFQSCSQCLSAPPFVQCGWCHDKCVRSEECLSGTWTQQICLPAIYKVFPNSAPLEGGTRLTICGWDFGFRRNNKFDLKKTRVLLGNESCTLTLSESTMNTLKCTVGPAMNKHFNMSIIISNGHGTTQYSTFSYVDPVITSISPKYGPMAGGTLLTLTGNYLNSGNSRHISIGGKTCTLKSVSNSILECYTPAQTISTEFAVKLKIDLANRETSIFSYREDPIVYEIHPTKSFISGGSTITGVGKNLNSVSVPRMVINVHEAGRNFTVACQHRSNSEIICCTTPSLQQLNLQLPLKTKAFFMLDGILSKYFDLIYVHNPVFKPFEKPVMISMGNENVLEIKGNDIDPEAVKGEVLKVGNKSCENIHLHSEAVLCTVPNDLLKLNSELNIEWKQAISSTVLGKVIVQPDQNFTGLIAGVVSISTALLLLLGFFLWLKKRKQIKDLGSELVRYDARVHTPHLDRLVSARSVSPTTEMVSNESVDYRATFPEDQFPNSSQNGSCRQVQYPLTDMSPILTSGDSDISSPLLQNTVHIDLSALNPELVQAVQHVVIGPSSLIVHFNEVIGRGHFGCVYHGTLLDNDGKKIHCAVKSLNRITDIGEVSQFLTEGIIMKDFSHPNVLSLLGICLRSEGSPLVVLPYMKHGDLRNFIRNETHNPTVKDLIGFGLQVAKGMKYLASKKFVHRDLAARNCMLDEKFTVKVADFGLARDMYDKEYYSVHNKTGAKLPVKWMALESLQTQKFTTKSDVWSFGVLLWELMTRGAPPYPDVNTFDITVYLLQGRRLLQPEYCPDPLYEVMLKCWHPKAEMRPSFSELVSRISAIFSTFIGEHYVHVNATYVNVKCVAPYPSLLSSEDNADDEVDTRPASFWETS

[5] = molecular target: Platelet-derived growth factor receptor alpha (Homo sapiens, UniProt P16234); test: Inhibition of PDGFRalpha (unknown origin) using FAM-labeled peptide as substrate incubated for 10 mins followed by substrate addition by HTRF assay
Platelet-derived growth factor receptor alpha, sequence (P16234 whole entry): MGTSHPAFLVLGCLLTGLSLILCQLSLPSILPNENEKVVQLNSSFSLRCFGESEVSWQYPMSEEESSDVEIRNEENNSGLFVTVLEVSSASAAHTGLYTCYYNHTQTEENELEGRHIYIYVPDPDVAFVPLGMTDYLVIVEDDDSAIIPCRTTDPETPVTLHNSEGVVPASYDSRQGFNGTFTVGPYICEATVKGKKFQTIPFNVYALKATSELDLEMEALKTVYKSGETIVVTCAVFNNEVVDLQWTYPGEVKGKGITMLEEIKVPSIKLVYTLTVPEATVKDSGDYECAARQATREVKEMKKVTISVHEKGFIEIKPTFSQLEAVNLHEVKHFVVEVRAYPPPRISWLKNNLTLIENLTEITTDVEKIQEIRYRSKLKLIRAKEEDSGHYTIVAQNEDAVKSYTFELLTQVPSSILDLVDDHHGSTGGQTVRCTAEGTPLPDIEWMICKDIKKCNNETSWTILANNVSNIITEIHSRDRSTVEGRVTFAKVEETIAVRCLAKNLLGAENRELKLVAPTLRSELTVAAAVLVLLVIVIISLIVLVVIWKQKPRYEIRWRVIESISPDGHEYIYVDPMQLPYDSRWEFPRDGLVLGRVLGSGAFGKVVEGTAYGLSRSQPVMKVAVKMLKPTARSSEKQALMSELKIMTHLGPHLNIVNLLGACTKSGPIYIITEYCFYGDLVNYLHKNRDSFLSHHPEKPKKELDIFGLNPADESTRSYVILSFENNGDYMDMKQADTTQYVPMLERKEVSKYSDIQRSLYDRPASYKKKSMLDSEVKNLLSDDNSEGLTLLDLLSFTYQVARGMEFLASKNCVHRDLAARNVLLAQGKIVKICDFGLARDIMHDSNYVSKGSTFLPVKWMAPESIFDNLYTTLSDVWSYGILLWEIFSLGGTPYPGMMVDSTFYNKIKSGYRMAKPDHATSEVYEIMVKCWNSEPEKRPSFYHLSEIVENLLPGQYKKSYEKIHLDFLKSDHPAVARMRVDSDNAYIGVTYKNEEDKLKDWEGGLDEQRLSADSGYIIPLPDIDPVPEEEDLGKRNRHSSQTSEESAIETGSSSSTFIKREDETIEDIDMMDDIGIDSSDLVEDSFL

[6] = molecular target: T1, Receptor-type tyrosine-protein kinase FLT3 (Homo sapiens, UniProt P36888); test: Inhibition of FLT3 (unknown origin) using FAM-labeled peptide as substrate incubated for 10 mins followed by substrate addition by HTRF assay
T1 sequence (P36888 whole entry): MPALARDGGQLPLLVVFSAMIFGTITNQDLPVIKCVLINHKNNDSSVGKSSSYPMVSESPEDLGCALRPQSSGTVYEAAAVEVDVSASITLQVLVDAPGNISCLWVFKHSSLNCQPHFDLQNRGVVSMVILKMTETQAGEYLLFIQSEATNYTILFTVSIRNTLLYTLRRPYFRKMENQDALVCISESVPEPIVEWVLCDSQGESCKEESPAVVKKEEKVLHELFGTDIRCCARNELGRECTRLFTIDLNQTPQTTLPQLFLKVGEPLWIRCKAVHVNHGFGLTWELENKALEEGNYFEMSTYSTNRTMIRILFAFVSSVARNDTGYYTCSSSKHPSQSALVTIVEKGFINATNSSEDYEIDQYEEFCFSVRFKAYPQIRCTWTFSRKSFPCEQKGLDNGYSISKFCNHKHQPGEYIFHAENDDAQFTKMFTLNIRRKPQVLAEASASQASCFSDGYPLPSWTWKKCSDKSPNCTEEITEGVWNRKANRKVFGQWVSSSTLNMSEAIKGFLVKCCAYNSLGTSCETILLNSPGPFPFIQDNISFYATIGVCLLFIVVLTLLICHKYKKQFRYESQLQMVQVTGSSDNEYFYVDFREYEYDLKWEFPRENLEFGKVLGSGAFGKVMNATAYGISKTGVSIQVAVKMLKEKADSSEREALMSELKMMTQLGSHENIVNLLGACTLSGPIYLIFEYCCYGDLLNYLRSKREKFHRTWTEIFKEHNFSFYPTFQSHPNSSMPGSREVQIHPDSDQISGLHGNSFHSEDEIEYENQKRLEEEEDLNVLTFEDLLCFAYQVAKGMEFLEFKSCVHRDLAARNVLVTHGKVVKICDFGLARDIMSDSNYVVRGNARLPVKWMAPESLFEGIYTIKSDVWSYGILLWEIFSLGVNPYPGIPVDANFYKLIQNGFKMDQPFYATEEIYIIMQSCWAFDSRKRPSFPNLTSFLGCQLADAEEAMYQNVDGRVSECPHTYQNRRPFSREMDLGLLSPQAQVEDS

[7] = molecular target: Mast/stem cell growth factor receptor Kit (Homo sapiens, UniProt P10721); test: Inhibition of c-KIT (unknown origin) using FAM-labeled peptide as substrate incubated for 10 mins followed by substrate addition by HTRF assay
[8] = molecular target: Platelet-derived growth factor receptor beta (Homo sapiens, UniProt P09619); test: Inhibition of PDGFRbeta (unknown origin) using FAM-labeled peptide as substrate incubated for 10 mins followed by substrate addition by HTRF assay
Platelet-derived growth factor receptor beta, sequence (P09619 whole entry): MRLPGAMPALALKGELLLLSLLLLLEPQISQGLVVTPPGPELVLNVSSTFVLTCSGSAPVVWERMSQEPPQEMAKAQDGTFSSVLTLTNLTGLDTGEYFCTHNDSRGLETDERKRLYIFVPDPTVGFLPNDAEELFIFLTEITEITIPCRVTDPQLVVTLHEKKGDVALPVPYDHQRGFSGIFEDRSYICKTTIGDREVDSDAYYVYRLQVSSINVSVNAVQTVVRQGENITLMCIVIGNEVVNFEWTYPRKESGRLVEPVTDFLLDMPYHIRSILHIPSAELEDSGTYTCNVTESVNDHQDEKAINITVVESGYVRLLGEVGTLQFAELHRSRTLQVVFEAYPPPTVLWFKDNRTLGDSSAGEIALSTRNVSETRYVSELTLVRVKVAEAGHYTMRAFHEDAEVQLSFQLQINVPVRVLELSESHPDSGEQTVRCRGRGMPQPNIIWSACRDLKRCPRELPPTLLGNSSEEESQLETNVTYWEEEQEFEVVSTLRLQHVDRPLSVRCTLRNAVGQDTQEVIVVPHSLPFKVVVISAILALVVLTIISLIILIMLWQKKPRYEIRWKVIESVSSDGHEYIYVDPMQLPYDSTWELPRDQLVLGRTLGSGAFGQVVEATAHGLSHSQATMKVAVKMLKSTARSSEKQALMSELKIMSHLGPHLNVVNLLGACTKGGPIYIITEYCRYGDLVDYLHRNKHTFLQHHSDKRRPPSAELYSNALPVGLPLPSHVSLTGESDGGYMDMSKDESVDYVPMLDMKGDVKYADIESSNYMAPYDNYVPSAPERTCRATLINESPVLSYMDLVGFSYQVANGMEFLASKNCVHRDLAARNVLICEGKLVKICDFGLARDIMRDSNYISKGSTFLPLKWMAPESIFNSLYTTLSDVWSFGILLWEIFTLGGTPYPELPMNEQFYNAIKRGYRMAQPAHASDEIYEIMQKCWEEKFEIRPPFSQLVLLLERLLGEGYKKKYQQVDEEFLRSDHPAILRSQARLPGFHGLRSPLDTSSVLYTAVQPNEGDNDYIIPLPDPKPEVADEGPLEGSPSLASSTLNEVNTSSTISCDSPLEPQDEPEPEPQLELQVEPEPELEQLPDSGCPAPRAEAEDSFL

[9] = molecular target: Vascular endothelial growth factor receptor 3 (Homo sapiens, UniProt P35916); test: Inhibition of FLT4 (unknown origin) using FAM-labeled peptide as substrate incubated for 10 mins followed by substrate addition by HTRF assay
[10] = molecular target: ALK tyrosine kinase receptor (Homo sapiens, UniProt Q9UM73); test: Inhibition of ALK (unknown origin) using FAM-labeled peptide as substrate incubated for 10 mins followed by substrate addition by HTRF assay
[11] = molecular target: Epidermal growth factor receptor (Homo sapiens, UniProt P00533); test: Inhibition of EGFR (unknown origin) using FAM-labeled peptide as substrate incubated for 10 mins followed by substrate addition by HTRF assay
Epidermal growth factor receptor, sequence (P00533 whole entry): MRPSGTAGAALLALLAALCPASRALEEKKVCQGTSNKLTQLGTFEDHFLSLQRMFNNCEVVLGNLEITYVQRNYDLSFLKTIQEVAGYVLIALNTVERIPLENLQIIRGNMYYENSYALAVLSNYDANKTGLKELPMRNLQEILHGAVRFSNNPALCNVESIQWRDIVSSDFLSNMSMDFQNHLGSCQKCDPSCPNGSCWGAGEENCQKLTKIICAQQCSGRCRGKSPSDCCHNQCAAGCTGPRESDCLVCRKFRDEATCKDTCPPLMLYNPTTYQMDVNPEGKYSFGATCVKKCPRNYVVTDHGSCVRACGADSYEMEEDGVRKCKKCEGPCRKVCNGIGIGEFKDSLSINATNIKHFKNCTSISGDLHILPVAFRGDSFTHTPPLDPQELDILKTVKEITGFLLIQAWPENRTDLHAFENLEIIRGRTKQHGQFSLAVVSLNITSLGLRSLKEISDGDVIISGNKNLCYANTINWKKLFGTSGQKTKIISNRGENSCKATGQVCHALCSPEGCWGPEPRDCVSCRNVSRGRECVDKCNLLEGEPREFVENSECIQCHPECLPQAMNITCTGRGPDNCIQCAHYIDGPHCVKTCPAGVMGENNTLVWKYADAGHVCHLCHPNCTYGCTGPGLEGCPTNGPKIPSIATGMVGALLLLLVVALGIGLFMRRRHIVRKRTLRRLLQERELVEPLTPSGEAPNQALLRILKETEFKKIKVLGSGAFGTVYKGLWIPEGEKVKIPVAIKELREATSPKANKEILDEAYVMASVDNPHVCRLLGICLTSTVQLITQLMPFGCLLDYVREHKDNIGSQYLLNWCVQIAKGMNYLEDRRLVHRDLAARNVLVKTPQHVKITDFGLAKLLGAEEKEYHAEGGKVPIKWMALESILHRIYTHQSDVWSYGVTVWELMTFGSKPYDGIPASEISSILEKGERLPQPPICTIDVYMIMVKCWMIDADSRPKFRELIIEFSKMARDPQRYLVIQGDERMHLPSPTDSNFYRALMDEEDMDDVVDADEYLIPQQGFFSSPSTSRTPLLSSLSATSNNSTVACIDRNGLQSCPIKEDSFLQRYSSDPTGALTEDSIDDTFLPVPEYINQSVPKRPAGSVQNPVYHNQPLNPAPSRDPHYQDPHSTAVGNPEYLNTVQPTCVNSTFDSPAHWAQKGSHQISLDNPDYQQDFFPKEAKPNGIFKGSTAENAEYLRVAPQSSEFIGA

[12] = tested on: HepG2; test: Induction of apoptosis in human HepG2 cells assessed as viable cells at 0.5 uM after 48 hrs by Annexin V-FITC/PI staining based flow cytometry (reference value: 91.69%); format: functional; details: HepG2, 48 h, read-out: Activity
[13] = tested on: HepG2; test: Induction of apoptosis in human HepG2 cells assessed as early apoptotic cells at 0.5 uM after 48 hrs by Annexin V-FITC/PI staining based flow cytometry (reference value: 2.97%); format: functional
[14] = tested on: HepG2; test: Induction of apoptosis in human HepG2 cells assessed as late apoptotic cells at 0.5 uM after 48 hrs by Annexin V-FITC/PI staining based flow cytometry (reference value: 3.53%); format: functional
[15] = tested on: HepG2; test: Induction of apoptosis in human HepG2 cells assessed as necrotic cells at 0.5 uM after 48 hrs by Annexin V-FITC/PI staining based flow cytometry (reference value: 1.81%); format: functional

Compound `COc1cc2c(Oc3ccc(NC(=O)c4cc5cccnc5n(-c5ccc(C(F)(F)F)cc5Cl)c4=O)cc3F)ccnc2cc1OCCCN1CCOCC1` has an IC50 [1] of 4.17 µM, an IC50 [2] of 9.41 µM and an IC50 [3] of 4.19 µM.
In the case of `COc1cc2c(Oc3ccc(NC(=O)c4cc5cccnc5n(-c5ccc(Br)cc5)c4=O)cc3F)ccnc2cc1OCCCN1CCOCC1`, the IC50 [4] is reported as 0.0101 µM, the IC50 [1] is reported as 1.98 µM and the IC50 [2] is reported as 0.61 µM. It also gave an IC50 [3] of 4.17 µM.
Compound `COc1cc2c(Oc3ccc(NC(=O)c4cc5cccnc5n(-c5ccc(F)cc5)c4=O)cc3F)ccnc2cc1OCCCN1CCC(C)CC1` has an IC50 [4] of 0.0318 µM.
In the case of `COc1cc2c(Oc3ccc(NC(=O)c4cc5cccnc5n(-c5ccc(Br)cc5F)c4=O)cc3F)ccnc2cc1OCCCN1CCC(C)CC1`, the IC50 [4] is reported as 0.0383 µM.
With `COc1cc2c(Oc3ccc(NC(=O)c4cc5cccnc5n(-c5ccc(F)cc5)c4=O)cc3F)ccnc2cc1OCCCN1CCCCC1` the IC50 [4] was 0.00286 µM.
`COc1cc2c(Oc3ccc(NC(=O)c4cc5cccnc5n(-c5ccc(Br)cc5F)c4=O)cc3F)ccnc2cc1OCCCN1CCN(C)CC1` showed an IC50 [4] of 0.00641 µM.
In the case of `COc1ccc(-n2c(=O)c(C(=O)Nc3ccc(Oc4ccnc5cc(OCCCN6CCOCC6)c(OC)cc45)c(F)c3)cc3cccnc32)cc1`, the IC50 [1] is reported as 9.16 µM, the IC50 [2] is reported as 10.5 µM and the IC50 [3] is reported as 19.5 µM.
`COc1cc2c(Oc3ccc(NC(=O)c4cc5cccnc5n(-c5ccc(F)cc5)c4=O)cc3F)ccnc2cc1OCCCN1CCN(C)CC1` was tested, and the IC50 [4] was 0.00236 µM, the IC50 [5] was 0.00435 µM and the IC50 [6] was 0.00531 µM. It also gave an IC50 [7] of 0.0101 µM, an IC50 [8] of 0.0195 µM and an IC50 [9] of 0.183 µM. For the same compound, the IC50 [10] was 0.2 µM and the IC50 [11] was greater than 10 µM.
For `COc1cc2c(Oc3ccc(NC(=O)c4cc5cccnc5n(-c5ccc(F)cc5)c4=O)cc3F)ccnc2cc1OCCCN1CCOCC1`, the IC50 [4] was 0.00797 µM, the IC50 [1] was 0.76 µM and the IC50 [2] was 1.78 µM. It also gave an IC50 [3] of 2.41 µM.
Work on `COc1cc2c(Oc3ccc(NC(=O)c4cc5cccnc5n(-c5ccc(Br)cc5)c4=O)cc3F)ccnc2cc1OCCCN1CCCCC1` yielded an IC50 [4] of 0.0292 µM.
`COc1cc2c(Oc3ccc(NC(=O)c4cc5cccnc5n(-c5ccccc5)c4=O)cc3F)ccnc2cc1OCCCN1CCOCC1` gave an IC50 [1] of 11.6 µM, an IC50 [2] greater than 40 µM and an IC50 [3] of 16.8 µM.
`COc1cc2c(Oc3ccc(NC(=O)C4(C(=O)Nc5ccc(F)cc5)CC4)cc3F)ccnc2cc1OCCCN1CCOCC1` [FORETINIB] gave a viability at 0.5 µM [12] of 72.5%, an Activity [13] of 18.51% and an Activity [14] of 8.36%. The Activity [15] was 0.64%.
Work on `COc1cc2c(Oc3ccc(NC(=O)c4cc5cccnc5n(-c5ccc(Cl)cc5)c4=O)cc3F)ccnc2cc1OCCCN1CCOCC1` yielded an IC50 [1] greater than 40 µM, an IC50 [2] of 3.21 µM and an IC50 [3] of 4.23 µM.
`COc1cc2c(Oc3ccc(NC(=O)c4cc5cccnc5n(-c5ccc(Br)cc5F)c4=O)cc3F)ccnc2cc1OCCCN1CCOCC1` gave an IC50 [1] greater than 40 µM, an IC50 [2] of 9.75 µM and an IC50 [3] greater than 40 µM.
With `COc1cc2c(Oc3ccc(NC(=O)c4cc5cccnc5n(-c5ccc(F)c(Cl)c5)c4=O)cc3F)ccnc2cc1OCCCN1CCOCC1` the IC50 [1] was 9.68 µM, the IC50 [2] was 1.12 µM and the IC50 [3] was greater than 40 µM.
